ChEMBL document CHEMBL1201862, “PubChem BioAssay data set” (2004)
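Step 1: Grow cells in 96-well plates. Step 2: Expose to compound for 48 hours at 5 concentrations. Step 3: Interpolate endpoints linearly; if unreached, use highest concentration. Here, GI50 denotes the concentration required for 50% inhibition of growth.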 Calls of active or inactive are those of the source. Rule as the data show it: active = GI50 up to about 1.1 µM and inactive = higher.

How the values were obtained:
Assay in all cases: growth of human tumour cells (NCI), 48 h
CCRF-CEM = system: CCRF-CEM
DMS-114 = system: DMS-114
HT-29 = system: HT-29
IGROV-1 = system: IGROV-1
M19-MEL = system: M19-MEL
MDA-MB-231 = system: MDA-MB-231
MOLT-4 = system: MOLT-4
Malme-3M = system: Malme-3M
NCI-H226 = system: NCI-H226
OVCAR-3 = system: OVCAR-3
OVCAR-5 = system: OVCAR-5
SF-268 = system: SF-268
SF-295 = system: SF-295
SF-539 = system: SF-539
SK-MEL-2 = system: SK-MEL-2
SK-MEL-5 = system: SK-MEL-5
SNB-75 = system: SNB-75
SR = system: SR
TK-10 = system: TK-10
UACC-62 = system: UACC-62

Row | Compound | GI50 (CCRF-CEM) | GI50 (DMS-114) | GI50 (HT-29) | GI50 (IGROV-1) | GI50 (M19-MEL) | GI50 (MDA-MB-231) | GI50 (MOLT-4) | GI50 (Malme-3M) | GI50 (NCI-H226) | GI50 (OVCAR-3) | GI50 (OVCAR-5) | GI50 (SF-268) | GI50 (SF-295) | GI50 (SF-539) | GI50 (SK-MEL-2) | GI50 (SK-MEL-5) | GI50 (SNB-75) | GI50 (SR) | GI50 (TK-10) | GI50 (UACC-62)
1 | N=C(N)NS(=O)(=O)c1ccc(NC(=O)c2cccc3c(O)c4ccccc4nc23)cc1 | 28.9 µM (inactive) | > 100 µM (inactive) | > 100 µM (inactive) | 81.5 µM (inactive) | > 100 µM (inactive) | > 100 µM (inactive) | > 83 µM (inactive) | > 100 µM (inactive) | > 100 µM (inactive) | > 100 µM (inactive) | 99.3 µM (inactive) | > 100 µM (inactive) | 60.3 µM (inactive) | > 78.3 µM (inactive) | > 100 µM (inactive) | > 100 µM (inactive) | 31.8 µM (inactive) | > 74.8 µM (inactive) | 54.8 µM (inactive) | > 100 µM (inactive)
2 | Nc1c2ccccc2nc2nccnc12 | > 100 µM (inactive) | > 100 µM (inactive) | > 100 µM (inactive) | 60.4 µM (inactive) | > 100 µM (inactive) |  | > 100 µM (inactive) | > 100 µM (inactive) | > 100 µM (inactive) | > 100 µM (inactive) | > 100 µM (inactive) | > 100 µM (inactive) | > 100 µM (inactive) | > 100 µM (inactive) | > 100 µM (inactive) | > 100 µM (inactive) | > 100 µM (inactive) | > 100 µM (inactive) | > 100 µM (inactive) | > 100 µM (inactive)
3 | O=c1/c(=C/c2ccccc2[N+](=O)[O-])sc2nc3ccccc3n12 | 13 µM (inactive) | 16.3 µM (inactive) | > 46.5 µM (inactive) | 30.5 µM (inactive) | 28.6 µM (inactive) |  | > 46.1 µM (inactive) | 42.2 µM (inactive) | 22.9 µM (inactive) | > 31.6 µM (inactive) | > 46.5 µM (inactive) | 29.9 µM (inactive) | 18.8 µM (inactive) | 19.5 µM (inactive) | 20.4 µM (inactive) | 41.6 µM (inactive) | 24.5 µM (inactive) | 12.2 µM (inactive) | > 46.5 µM (inactive) | 64.7 µM (inactive)
4 | Cc1cc(C)c2c(c1)N[S@@](=O)S2 | 21.9 µM (inactive) | 18.7 µM (inactive) | 20.2 µM (inactive) | 19.4 µM (inactive) | 21.7 µM (inactive) |  | 25.8 µM (inactive) | 25.2 µM (inactive) | 19.2 µM (inactive) | 18.3 µM (inactive) | 30.6 µM (inactive) | 17.9 µM (inactive) | 39.7 µM (inactive) | 26.1 µM (inactive) | 22.3 µM (inactive) | 29.9 µM (inactive) | 32.5 µM (inactive) | 36.2 µM (inactive) | 30.4 µM (inactive) | 18.6 µM (inactive)
5 | Cc1ccccc1C1OC(=O)c2ccc3ccccc3c21 (centres undefined) | 4.21 µM (inactive) | 4.67 µM (inactive) | 4.22 µM (inactive) | 5 µM (inactive) | 3.27 µM (inactive) |  | 2.23 µM (inactive) | 5.56 µM (inactive) | 4.75 µM (inactive) | 3.65 µM (inactive) | 8.57 µM (inactive) | 6.97 µM (inactive) | 7.35 µM (inactive) | 3.27 µM (inactive) | 2.25 µM (inactive) | 3.53 µM (inactive) | 3.55 µM (inactive) | 0.769 µM (active) | 7 µM (inactive) | 2.94 µM (inactive)
6 | CSc1ccc(N2C(=O)C3c4[nH]c5ccccc5c4C4CCC(C(C)(C)C)CC4C3C2=O)cc1 (centres undefined) | 8.49 µM (inactive) | 15.2 µM (inactive) | 21.8 µM (inactive) | 13.8 µM (inactive) | 31.9 µM (inactive) |  | 15.4 µM (inactive) | 12.3 µM (inactive) | 19.1 µM (inactive) | 41.2 µM (inactive) | 48.3 µM (inactive) | 12.4 µM (inactive) | 14.3 µM (inactive) | 18.3 µM (inactive) | 17.6 µM (inactive) | 25.8 µM (inactive) | 18.5 µM (inactive) | 10.2 µM (inactive) | 19.5 µM (inactive) | 13.8 µM (inactive)
7 | CCOC(=O)N1C2C=C(C)C(C3C(C)C(=O)N31)N(C(=O)c1ccccc1)O2 (centres undefined) | > 100 µM (inactive) | > 100 µM (inactive) | > 100 µM (inactive) | > 100 µM (inactive) | > 100 µM (inactive) |  | > 100 µM (inactive) | > 100 µM (inactive) | > 100 µM (inactive) | > 100 µM (inactive) | > 100 µM (inactive) | > 100 µM (inactive) | > 100 µM (inactive) | > 100 µM (inactive) | > 100 µM (inactive) | > 100 µM (inactive) | > 100 µM (inactive) | > 100 µM (inactive) | > 100 µM (inactive) | > 100 µM (inactive)
